Assay [1] deals with Src and ERK1/2. The assay is described as follows: Activation of Src and ERK1/2 in P-11, A4-11, PY-17 and AAC-19 cells (Western blot). It is filed as cell-based, pig. The note with it: for Src activation (Tyr(P)418-Src): 100 nM ouabain. How it is done: FIGS. 18A and 18B. Cells were exposed to 100 nM ouabain for either 5 or 15 min, and the cell lysates (50 μg/lane) were analyzed by Western blot for active Src or active ERK1/2. Blots were probed first with anti-Tyr(P)^418-Src or anti-pERK antibody, then stripped, and reprobed for total Src or ERK1/2 to ensure equal loading.
FIGS. 18 C and 18D. Cells were treated with indicated concentrations of ouabain for 5 min, and total cell lysates were analyzed for Tyr(P)^418-Src and total Src or pERK1/2 and total ERK1/2 as in FIGS. 18A and 18B. A representative Western blot and combined quantitative data are shown. The quantitative data (relative ratio of pSrc/Src or pERK/ERK) from three independent experiments (mean±S.E.) were calculated relative to the control condition of P-11 cells. *, p<0.05 versus the respective control condition of each cell line. con, control.
Cells were washed with PBS, solubilized in modified ice-cold radioimmune precipitation assay buffer, and subjected to immunoprecipitation or Western blot analysis. Protein signal was detected using the enhanced chemiluminescence kit and quantified using a Bio-Rad GS-670 imaging densitometer.

The target in assay [2] is T1, GFP-canine α1 and Src-Rluc in 293T cells (Canis lupus familiaris, UniProt P50997).
T1 construct: expressed in transfected cells; host or cells: 293T (human embryo kidney)
The assay is described as follows: BRET analysis. In kind it is cell-based, human. How it is done: BRET assay was done as described by Lowry et al. (2002). Briefly, 24 h after transfection with GFP-Na+/K+-ATPase and Src-Rluc or other constructs as indicated, cells were seeded in triplicate in a 96-well microplate. After treatment with indicated concentration of ouabain, cells were exposed to equal volume of BRET analysis buffer containing 10 μM DeepBlue C, the substrate of Rluc. The emission at 410 nm (for Rluc) and 515 nm (for GFP) was immediately acquired using a Fluoroskan Ascent FL (Labsystems, Franklin, Mass.) with microplate luminometric detection. The BRET ratio was calculated as follows: (Emission at 515 nm−Background at 515 nm)/(Emission at 410 nm−Background at 410 nm), where Background signal was assessed in each experiment by measuring the signal of a sample of nontransfected cells.

Assay [3] concerns Na+/K+-ATPase/Src complex. The assay is described as follows: Effect of ouabain on binding of GST-Src constructs to Na+/K+-ATPase. The following applies: 10 μM ouabain, 15 min. The protocol: FIG. 7C. A representative Western blot of four separate experiments showing that ouabain induced the release of the kinase domain from the Na+/K+-ATPase. […] Complexes were then pulled down on glutathione beads, washed three times, resuspended in 500 μl PBS, and exposed to 10 μM ouabain for 15 min. The beads were then washed for three more times using PBS, and the pulled down Na+/K+-ATPase was analyzed by Western blot using anti-α1 antibody
Because the inventors have shown that multiple domains are involved in Src interaction with the Na+/K+ATPase, the above findings led us to test if ouabain dissociates only a single (kinase) domain from the interacting Na+/K+-ATPase. […] Afterward, the complexes were exposed to 10 μM ouabain.

Assay [4] deals with T2, Na+/K+-ATPase/Src complex (Sus scrofa, UniProt P05024).
T2 construct: Na+/K+-ATPase was purified from pig kidney outer medulla using the Jorgensen method; tissue Upstate Biotechnology (Src only); host or cells: pig kidney outer medulla (Na+/K+-ATPase)
The experiment in a line: Src pY418 phosphorylation of the Na+/K+-ATPase/Src complex (Western blot). In kind it is biochemical. The protocol:
The Src kinase activity was assayed using a commercial kit (Haas et al., 2000). To determine how Na+/K+-ATPase affects Src kinase activity, the purified Src (4.5 U) was incubated with 5 μg of the purified Na+/K+-ATPase in the Src assay buffer for 30 min at room temperature. Afterward, both control Src or the Na+/K+-ATPase-bound Src were exposed to 10 μM ouabain and Src kinase activity was determined. In other experiments, the Src pY418 was measured by anti-pY418 antibody to indicate Src activation (Ma et al., 2000). To do so, the purified Src (4.5 U) was incubated with different amounts of the purified Na+/K+-ATPase or GST-Na+/K+ATPase constructs in phosphate-buffered saline (PBS) for 30 min at 37° C. Afterward, 2 mM ATP/Mg2+ was added. The reaction continued for 5 min at 37° C. and was stopped by addition of SDS sample buffer.
The purified Na+/K+-ATPase was solubilized in 1% Triton X-100 PBS and centrifuged at 100,000×g for 30 min. The supernatant was collected for the binding assay. GST-fusion proteins (5 μg) were conjugated on glutathione beads and incubated with the solubilized Na+/K+-ATPase in 500 μl PBS in the presence of 0.5% Triton X-100 at room temperature for 30 min. The beads were washed with the same buffer for four times. The bound Na+/K+ATPase was resolved on 10% SDS-PAGE and detected by Western blot. Reciprocal binding assay using GST-Na+/K+-ATPase constructs (5 μg) and purified Src lacking of first 85 amino acids (200 ng) or His-tagged Src constructs (100 ng) was done similarly. To test if native Na+/K+-ATPase binds Src, the above experiments were repeated in the absence of Triton X-100. To make the Na+/K+-ATPase/Src complex, 2-5 μg of the purified Na+/K+ATPase was incubated with 4.5 U of Src (˜10 ng) in PBS in the absence of Triton X-100 at room temperature for 30 min. The complex was either used for the experiments directly as indicated or collected by centrifugation at 100,000×g for 30 min.

Setting [5] is: 10 μM ouabain 15 min before centrifugation.

The structures appear in SMILES notation.

`C[C@@H]1O[C@@H](O[C@H]2C[C@@H](O)[C@]3(CO)[C@H]4[C@H](O)C[C@]5(C)[C@@H](C6=CC(=O)OC6)CC[C@]5(O)[C@@H]4CC[C@]3(O)C2)[C@H](O)[C@H](O)[C@H]1O` [ouabain]: the “Src activation (Tyr(P)418-Src)” value was “significant reduction” in assay [1] (A4-11 cells), “activated Src” in assay [1] (P-11 cells) and “essentially abolished” in assay [1] (PY-17 cells). Further, in assay [1] (AAC-19 cells (rat α1 knock-in)), the “dose-response of Src and ERK1/2 activation” value is “shifted the dose-response curve to the right”. The ERK1/2 phosphorylation result in assay [1] (PY-17 cells, ouabain) is given as “failed to detect any ouabain-induced change”. Also, the “ouabain concentration at which significant decrease in BRET ratio was detected” value in assay [2] is on record as 10 nM. In assay [2] (different concentrations of ouabain), the BRET ratio entry is “dose-dependent decrease in the BRET ratio”. The “binding of Src kinase domain to the Na+/K+-ATPase” value in assay [3] is “dissociated the kinase domain”. Also, the “binding of full-length Src or SH3SH2 domain to the Na+/K+-ATPase” value in assay [3] is on record as “no effect on the binding of either full-length Src or the SH3SH2 domain”. For the same molecule, the “Src pY418 of cosedimented complex” value in assay [4] (setting [5]) was “increased the amount of Src pY418”. For the same molecule, the “total Src cosedimented with the Na+/K+-ATPase” value in assay [4] (setting [5]) is “no effect on total Src cosedimented”. In addition, the “Src pY418 of Na+/K+-ATPase/Src complex” value in assay [4] (different concentrations of ouabain, 2 mM ATP/Mg2+, 5 min) was “significantly increased the pY418 in a dose-dependent manner”; in assay [4] (ouabain in the presence of vanadate) it was “still able to stimulate pY418 of Src”.

The record behind these values is US9663561B2, “Methods of treatment of cancer using SRC-modulating peptides” (The University of Toledo, priority 2006, dated 2017).
